This passage reports GI50 results from US20240408093A1, “HETEROBIFUNCTIONAL COMPOUNDS AND THEIR USE IN TREATING DISEASE” (HALDA THERAPEUTICS OPCO, INC., priority 2022, published 2024).

Broadly, the GI50 is the concentration at which growth is held to half of that of the control.

Assay [1] relates to HeLa cells. Kind of assay: Cellular growth inhibition assay, HeLa cells (Example 15). Type of assay: cell-based. Particulars: Homo sapiens, 72 h, three days, CellTiter-Glo 2.0. As for the experimental part:
(§1) HEK293 and HeLa cells were cultured in DMEM medium supplemented with 10% fetal bovine serum and 1% Penn/Strep. Cells were seeded in white 384-well plates at 500 cells/well in 25 μL complete medium. Following seeding, plates were spun at 300×g for three minutes and cultured at 37° C. with 5% CO2 in a humidified tissue culture incubator.
(§2) After 24 hours, compounds were titrated in 100% DMSO and diluted in complete cell culture medium. A 25 μL aliquot of compound/media mixture was added to cells to bring total volume in the wells to 50 μL. DMSO alone was used as a negative control. Plates were then spun at 300×g for three minutes and stored at 37° C. with 5% CO2 for three days.
(§3) On Day 0 and Day 3 of compound treatment, cell viability was quantified with CellTiter-Glo 2.0 reagent (Promega). After equilibrating microplates at room temperature for 30 minutes, 25 μL CellTiter-Glo 2.0 reagent was dispensed into each well to bring total volume to 75 μL. Plates were mixed on a shaker for 2 minutes at 500 rpm, followed by a 10-minute incubation at room temperature. Following a quick spin, luminescence readings were measured with an EnVision Plate Reader. Data was normalized to DMSO treated Day 0 and Day 3 readings. […]
In general terms: In ATP-based viability assays light output follows the ATP content of the culture.

Assay [2] concerns HEK293 cells. Kind of assay: Cellular growth inhibition assay, HEK293 cells (Example 15). In kind it is cell-based. Particulars: Homo sapiens, 72 h, three days, CellTiter-Glo 2.0. The protocol:
as §1, §2, §3

With `C=C(CN(C(=O)NCc1ccc2c(c1)CN(C1CCC(=O)NC1=O)C2=O)c1ccc(C)c(Cl)c1)C(=O)N1CCC[C@@H](n2nc(-c3ccc(Oc4ccccc4)cc3)c3c(N)ncnc32)C1` (some centres unmarked) [Compound I-4], the GI50 in assay [1] was greater than 10 µM; in assay [2] it was 1.5 to 10 µM.
